Consider one molecule from PMC7408066, “Attenuation of Inflammatory Symptoms by Icariside B2 in Carrageenan and LPS-Induced Inflammation Models via Regulation of MAPK/NF-κB Signaling Cascades” (Biomolecules, 2020).

The target in this test is T1, COX-2 (Ovis aries, UniProt P79208).
T1 construct: gene PTGS2; ovine purified COX-2
T1 sequence (P79208 17-603): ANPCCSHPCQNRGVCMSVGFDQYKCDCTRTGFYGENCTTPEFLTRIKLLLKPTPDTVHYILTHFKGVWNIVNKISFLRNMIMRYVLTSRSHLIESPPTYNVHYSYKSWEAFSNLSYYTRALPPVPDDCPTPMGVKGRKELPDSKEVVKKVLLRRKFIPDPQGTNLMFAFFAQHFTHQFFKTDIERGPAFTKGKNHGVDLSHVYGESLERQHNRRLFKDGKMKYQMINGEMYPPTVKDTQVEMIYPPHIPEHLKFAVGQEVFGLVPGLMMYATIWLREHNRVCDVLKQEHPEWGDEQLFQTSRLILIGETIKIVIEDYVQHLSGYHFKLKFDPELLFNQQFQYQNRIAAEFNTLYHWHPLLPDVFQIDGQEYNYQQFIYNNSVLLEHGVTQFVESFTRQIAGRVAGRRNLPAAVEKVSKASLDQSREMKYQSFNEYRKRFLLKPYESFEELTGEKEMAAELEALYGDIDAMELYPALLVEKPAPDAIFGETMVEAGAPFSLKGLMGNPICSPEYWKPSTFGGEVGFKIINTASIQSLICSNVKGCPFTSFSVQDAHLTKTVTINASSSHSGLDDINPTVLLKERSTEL
Kind of test: Cayman colorimetric COX (ovine) inhibitor screening assay, purified enzyme. The format is biochemical.

The term IC50 denotes the concentration at which inhibition is half-maximal. High values mean lower potency, low ones higher potency. Consider `CC(=O)/C=C/C12OC1(C)CC(OC1OC(CO)C(O)C(O)C1O)CC2(C)C` (stereo not shown) [ICSB, icariside B2], for which the IC50 came to 7.8 ± 0.26 µM.
